From publication PMC2788677 (Journal of medicinal chemistry, 2009)

Key:
MOR [1] = assay: Radioligand binding assay, CHO cells stably expressing MOR, [3H]DAMGO; settings: relative to dermorphin
MOR [2] = settings: cited from earlier work

## Dermorphin
MOR [1]
  Rel. MOR affinity: 1.0
MOR [2]
  higher affinity than morphine for MOR: 100 fold
